{
  "source": "patent US12433875B2",
  "about": "“(R)-4-(1-(6-(4-(trifluoromethyl)benzyl)-6-azaspiro[2.5]octane-5-carboxamido)-cyclopropyl) benzoic acid or its salt also in polymorphic form a for use in the prevention of heterotopic ossification” (ROTTAPHARM BIOTECH S.R.L., priority 2019, dated 2025)",
  "key": {"[1]": {"system": "Male DBA/1 mice (CIA model)", "assay": "CIA in mice, histology of heterotopic bone formation", "type": "in vivo", "conditions": "30 mg/kg (lowest tested dose) once daily for 10 days, FIG. 9", "description": "CIA in mice is another very popular translational model to mimic human arthritis. […] Male DBA/1 mice were immunized by intradermal injection at the base of the tail with an emulsion of 200 μg of bCII in CFA containing 3 mg/ml Mycobacterium tuberculosis. Non-immunized mice served as the negative control of disease. Animals were monitored by visual inspection for appearance of peripheral edema. […] Upon onset, animals were recruited and randomized. Recruitment was given a cut-off at day 40. Upon recruitment, arthritis clinical score was assigned, and edema was measured via caliper. Mice were randomized into the following groups: vehicle, 30 mg/kg the form A of the sodium salt of (R)-4-(1-(6-(4-(trifluoromethyl)benzyl)-6-azaspiro[2.5]octane-5-carboxamido)cyclopropyl)benzoic acid, 60 mg/kg the form A of the sodium salt of (R)-4-(1-(6-(4-(trifluoromethyl)benzyl)-6-azaspiro[2.5]octane-5-carboxamido)cyclopropyl)benzoic acid and 60 mg/kg naproxen. Animals received the test drugs once daily for 10 days. Histology was performed as described for rats."}, "[2]": {"system": "Sprague Dawley male rats (AIA model)", "assay": "Adjuvant Induced Arthritis (AIA) in rats, histology of pathological bone apposition", "type": "in vivo, rat", "conditions": "10 mg/kg orally once a day for 15 days, FIG. 10", "description": "Adjuvant Induced Arthritis (AIA) in rats is a widely studied and accepted animal model of inflammatory arthritis driven by Tcells. In experimental autoimmune diseases, CFA mediated activation of the innate immune compartment is important not only by regulating the early induction phase, but also by providing a surplus of effector and regulator cells in the late phase. Also in this model it was possible to appreciate a relevant pathological apposition of new bone. This paradigm was used as a third model to further confirm the effect of the compound of the invention as an effective inhibitor of pathological heterotopic ossification.\nSprague Dawley male rats (Charles River) were immunized by intradermal injection at the base of the tail with 150 μl of complete Freund's adjuvant (CFA) containing 10 mg/ml of heat killed Mycobacterium tuberculosis (Chondrex code 7027) or with incomplete Freund's adjuvant (IFA) (sham n=10). Ten days after immunization arthritis developed in all animals, but not in the sham-group; edema and clinical scores were assessed and the animals were then randomized and assigned to treatment groups (n=9-12) as follows: vehicle, the compound of the invention 10 mg/kg or 30 mg/kg. The compound of the invention was administered orally once a day for 15 days. […]"}, "[3]": {"system": "Male Lewis rats (CIA model, heterotopic bone formation)", "assay": "Collagen Induce Arthritis (CIA) in rats, histological scores", "type": "in vivo, rat", "description": "Collagen Induce Arthritis (CIA) in rats is among the most common models used to mimic human arthritis and especially Rheumatoid Arthritis (RA). In general the joint response seen in this model is quite similar to that observed in human pathology, in terms of inflammation, bone erosion and cartilage damage. Nevertheless, this model differs from Rheumatoid Arthritis, since it is endowed with a consistent periosteal woven bone formation (immature bone) that is not a usual feature of human RA (maybe, less than 10% of patients have this type of bone reaction). On the contrary, this disordered apposition of new bone is the distinctive feature of heterotopic ossification. Therefore, this model was used to study the effect of the compound of the invention in Pathological heretopic osteogenesis.\nMale Lewis rats were immunized by intradermal injection at the base of the tail with an emulsion containing 150 μg of bovine collagen type II (bCII) in complete Freund's adjuvant (CFA) or received an injection with incomplete Freund's adjuvant (sham group). Three weeks after the first immunisation, animals were boosted with the same procedure. Three days after booster injection, arthritis had developed in all animals but the sham group. The administration of the compound (1) Form A started at this time point and lasted for 14 days (once a day, unless otherwise indicated).\nThe paws were fixed in 10% neutral buffered formalin (Bio-Optica, Milan, Italy) and subsequently decalcified in EDTA for 4 weeks. Samples were dehydrated in an ethanol series and embedded in paraffin. At least three non-consecutive sections for each paw were blindly scored at the level of the tarsus, metatarsus and calcaneus for the following histological features of woven bone. Two independent pathologists performed histopathology on blinded slides. The data of right and left hind limbs were summed for each rat.\nIn FIG. 3 the dose-response curve for the compound of the invention is reported. the compound was administered once a day for 14 days on the site where the pathological bone formation was expected as induced in the CIA model in rats. The dose were 1 mg/Kg, 3 mg/kg and 10 mg/kg. The data were expressed as the median (boxed area), 95% interquartile range (whiskers), and individual data (symbols) of the histological scores for heterotopic bone formation (osteogenesis) given by two pathologists unaware of the treatment groups on a following scale: 0=absent; 1=mild/focal; 2=moderate/multifocal; 3=severe/multifocal to diffuse. Since arthritis was bilateral, the scores for each rat was the sum of the two leg scores. […] The compound reached the maximal activity at 10 mg/kg.\nThe data were expressed as the median histological scores for heterotopic bone formation (osteogenesis) as described for FIG. 3. […] As for osteogenesis, the data reported in this graph were the median (boxed area), 95% interquartile range (whiskers), and individual data (symbols) of the histological scores for synovial hyperplasia (oedema) given by two pathologists unaware of the treatment groups on a following scale: 0=normal: 1-2 layers of synovial lining cells, 1=mild: focal to multifocal 3-4 layers of synovial lining cells and/or mild proliferation of subsynovial tissue, 2=moderate: focal to mutlitfocal >4-6 layers of synovial lining cells and/or moderate proliferation of subsynovial tissue, 3=severe: multifocal to diffuse >6-8 layers of synovial lining cells and/or severe proliferation of subsynovial tissue. Since arthritis was bilateral, the scores for each rat is the sum of the two leg scores. This underline a preferential and surprising effect of (R)-4-(1-(6-(4-(trifluoromethyl)benzyl)-6-azaspiro[2.5]octane-5-carboxamido)cyclopropyl)benzoic acid on the heterotopic bone formation, […].\nThe free acid form has been assayed in the rat CIA model as already described for its sodium salt (Form A). […]"}},
  "note": "Entries after “also recorded” stand apart in the source; their conditions may differ.",
  "data": [
    {"smiles": "O=C([O-])c1ccc(C2(NC(=O)[C@H]3CC4(CCN3Cc3ccc(C(F)(F)F)cc3)CC4)CC2)cc1.[Na+]", "note": "[Form A, sodium (R)-4-(1-(6-(4-(trifluoromethyl)benzyl)-6-azaspiro[2.5]octane-5-carboxamido)cyclopropyl)benzoate]", "values": [
      {"measurement": "pathological bone formation (histology)", "setting": "[1]", "result": "completely abrogated in almost all animals"},
      {"measurement": "pathological bone apposition (histology)", "setting": "[2]", "result": "completely abrogated the pathological bone apposition in almost all animals"},
      {"measurement": "activity against heterotopic ossification in combination with methotrexate", "setting": "[3]; 1 mg/kg combined with methotrexate 0.5 mg/kg every other day, FIG. 5", "result": "not hindered by the combination with this drug"},
      {"measurement": "activity against heterotopic ossification compared with methotrexate", "setting": "[3]; 1 mg/kg vs methotrexate 0.5 mg/kg every other day, FIG. 5", "result": "higher than the comparative compound"},
      {"measurement": "activity on heterotopic bone formation (osteogenesis) compared with Methylsulfonylmethane (MSM)", "setting": "[3]; 10 mg/kg once a day vs MSM 600 mg/kg, FIG. 4", "result": "greatly superior"},
      {"measurement": "control of the inflammatory response (edema; histological scores for synovial hyperplasia)", "setting": "[3]; 15 mg/kg each, FIG. 6b", "result": "equally effective"},
      {"measurement": "activity in preventing pathological heterotopic ossification compared with rofecoxib", "setting": "[3]; 15 mg/kg, identical dose of rofecoxib, FIG. 6a", "result": "surprisingly superior"},
      {"measurement": "histological scores for heterotopic bone formation (osteogenesis)", "setting": "[3]; 1, 3 and 10 mg/kg once a day for 14 days, FIG. 3", "result": "capable to counteract the heterotopic bone formation; also recorded: able to counteract bony spur formation in a dose-dependent fashion"},
      {"measurement": "lowest effective dose against heterotopic ossification", "setting": "[3]; FIG. 5", "result": 1, "unit": "mg/kg"},
      {"measurement": "dose of maximal activity against heterotopic bone formation", "setting": "[3]; once a day for 14 days, FIG. 3", "result": 10, "unit": "mg/kg"}
    ]}
  ]
}
